{"source": "patent US11879145B2", "about": "“Reagents and methods for replication, transcription, and translation in semi-synthetic organisms” (The Scripps Research Institute, priority 2019, dated 2024)", "test_system": "sfGFP^151(AXC)", "assay": "Optimization of unnatural ribonucleotide triphosphate concentrations (sfGFP fluorescence and protein shift)", "format": "cell-based, E. coli", "procedure": "Examples 1A, 1B, and 2 identified dCNMO-dTPT3 as a competent UBP for the storage of information, and TAT1TP and NaMTP or 5FMTP as competent ribonucleoside triphosphates for its retrieval. Upon transformation with the same plasmids used above, 10 μM dTPT3TP and 25 μM dCNMOTP were provided in the growth media, which was then also supplemented with TAT1TP at concentrations ranging from 100 μM to 12.5 μM, and either NaMTP or 5FMTP at concentrations ranging from 200 μM to 12.5 μM, all in series of 2-fold dilutions, and after the addition of 1 mM AzK, the cells were induced to express sfGFP. […] In both cases, fluorescence was higher at lower concentrations of NaMTP or 5FMTP (due to increased production of contaminating natural sfGFP, see below). Additionally, cells generally produced higher fluorescence at higher concentrations of TAT1TP. […] Protein production was again quantified via the gel shift assay (FIG. 6C and FIG. 6D). Generally, as the concentration of NaMTP decreased below 200 μM, incrementally lower fidelity of AzK incorporation into sfGFP was observed, while with use of 5FMTP this reduction in fidelity was only observed below a concentration of 50 μM. Clearly lower concentrations of 5FMTP can be used without compromising fidelity. Cells provided with a high concentration of 5FMTP (≥50 µM) produced high protein shifts at all concentrations of TAT1TP explored (100 μM, 50 μM, 25 μM, or 12.5 μM).\nOptimization of in vivo Translation Conditions. An overnight culture of the SSO strain ML2 carrying the pGEX-MbPylRS TetR plasmid was grown in 2×YT supplemented with 50 mM potassium phosphate, […] chloramphenicol and 100 μg/mL carbenicillin (herein referred to in this section as “media”), then diluted back to an OD600 of 0.03 in the same media and grown to an OD600 of 0.4-0.6. The culture was then chilled with shaking over ice-water for 15 min then pelleted by centrifugation at 3,200×g for 10 min. Cells were then resuspended and washed with ice-cold ddH2O twice then resuspended in ice-cold ddH2O to an OD600 of 55-65. The electrocompetent cells (50 μL) and ˜1 ng of Golden Gate assembled plasmid with the UBP within the sfGFP and tRNAPyl genes (see Golden Gate Assembly of Plasmids) were transferred to a pre-chilled electroporation cuvette (0.2-cm-gap), then electroporated (Gene Pulser II; Bio-Rad) according to manufacturer's recommendations (voltage […], capacitor 2.5 μF, resistor 200Ω), and then immediately diluted with 950 μL of media. […] The culture was monitored for cell growth (Envision 2103 Multilabel Plate Reader with a 590/20 nm filter) and then collected at an OD600˜1.0. […]", "data": [{"smiles": "COc1cc(C)c(F)cc1[C@@H]1O[C@H](COP(=O)(O)OP(=O)(O)OP(=O)(O)O)[C@@H](O)[C@H]1O", "note": "[Compound 5FMTP]", "values": [{"measurement": "Concentration for combined optimization of protein purity and yield", "setting": "5FMTP and TAT1TP pair", "value": 50, "unit": "µM"}, {"measurement": "XTP concentration below which lower fidelity of AzK incorporation into sfGFP was observed", "setting": "with TAT1TP 12.5-100 μM", "value": 50, "unit": "µM"}]}]}
